From US8178535B2, “Substituted sulfonamide compounds having bradykinin 1 receptor activity and use thereof as medicaments” (Gruenenthal GmbH, priority 2008, dated 2012) come the findings set out here.

The target of assay [1] is T1, B1R receptor of rats (rB1R) (Rattus norvegicus, UniProt P97583).
T1 construct: host or cells: CHO K1 cells
T1 sequence (P97583 1-337): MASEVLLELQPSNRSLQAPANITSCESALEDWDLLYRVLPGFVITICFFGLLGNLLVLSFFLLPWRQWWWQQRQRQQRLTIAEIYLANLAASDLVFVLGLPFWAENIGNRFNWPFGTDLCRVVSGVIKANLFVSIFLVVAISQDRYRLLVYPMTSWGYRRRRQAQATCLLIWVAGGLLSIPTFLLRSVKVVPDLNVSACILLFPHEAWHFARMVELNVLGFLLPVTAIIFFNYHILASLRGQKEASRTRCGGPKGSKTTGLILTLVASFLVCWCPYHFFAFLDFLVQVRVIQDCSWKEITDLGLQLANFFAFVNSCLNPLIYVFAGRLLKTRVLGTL
The experiment in a line: FLIPR Ca2+ assay (Fluo-4) on CHO K1 cells stably transfected with the B1R gene of rats. As to conditions: CHO-K1; test substance 10 μM; agonist Des-Arg9-bradykinin 100 nM; % inhibition compared to the maximum achievable inhibition. It is filed as cell-based. Put shortly: (§1)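 CHO K1 cells stably expressing human or rat B1R, Fluo-4 loaded, read by FLIPR (Ex 488/Em 540, peak fluorescence). Compound at 10 μM gives % activation vs agonist. After 10 min, agonist added (human: Lys-Des-Arg9-bradykinin 0.5 nM; rat: Des-Arg9-bradykinin 100 nM); % inhibition relative to maximal achievable inhibition.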

Assay [2] concerns the target T2, human B1R receptor (hB1R) (Homo sapiens, UniProt P46663).
T2 construct: host or cells: CHO K1 cells
T2 sequence (P46663 1-353): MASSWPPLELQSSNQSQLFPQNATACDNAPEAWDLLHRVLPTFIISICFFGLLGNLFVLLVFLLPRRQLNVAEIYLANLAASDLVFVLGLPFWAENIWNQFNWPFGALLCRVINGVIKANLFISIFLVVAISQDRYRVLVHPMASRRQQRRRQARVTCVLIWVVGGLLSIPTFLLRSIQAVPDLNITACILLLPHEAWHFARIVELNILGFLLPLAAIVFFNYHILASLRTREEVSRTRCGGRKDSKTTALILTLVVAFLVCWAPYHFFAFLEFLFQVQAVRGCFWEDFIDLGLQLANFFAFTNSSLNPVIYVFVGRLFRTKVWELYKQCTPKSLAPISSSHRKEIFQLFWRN
Nature of the assay: FLIPR Ca2+ assay (Fluo-4) on CHO K1 cells stably transfected with the human B1R gene. It is filed as cell-based. As to conditions: CHO-K1; test substance 10 μM; agonist Lys-Des-Arg9-bradykinin 0.5 nM; % inhibition compared to the maximum achievable inhibition. An outline of the steps:
as §1

On to `COc1cc(C)c(S(=O)(=O)N2CCCCC2CCC(=O)N2CCn3c(Cc4ccncc4)ccc3C2)c(C)c1` (stereo not drawn) [(99), 3-(1-(4-Methoxy-2,6-dimethylphenylsulfonyl)piperidin-2-yl)-1-(6-(pyridin-4-ylmethyl)-3,4-dihydropyrrolo[1,2-a]pyrazin-2(1H)-yl)propan-1-one], for which the results for the inhibition at 10 µM in assay [1] and in assay [2] were 102% and 72%, respectively.
On the same counts, the results for `COc1cc(C)c(S(=O)(=O)N2CCCCC2CCCC(=O)N2CCn3cc(-c4ccncc4)nc3C2)c(C)c1` (stereo not drawn) [(100), 4-(1-(4-Methoxy-2,6-dimethylphenylsulfonyl)piperidin-2-yl)-1-(2-(pyridin-4-yl)-5,6-dihydroimidazo[1,2-a]pyrazin-7(8H)-yl)butan-1-one] are 101% and 85%.
As for `COc1cc(C)c(S(=O)(=O)N2CCCCC2COCC(=O)N2CCn3c(CCc4cccnc4)ccc3C2)c(C)c1` (stereo not drawn) [(101), 2-((1-(4-Methoxy-2,6-dimethylphenylsulfonyl)piperidin-2-yl)methoxy)-1-(6-(2-(pyridin-3-yl)ethyl)-3,4-dihydropyrrolo[1,2-a]pyrazin-2(1H)-yl)ethanone], the inhibition – broadly, the change of the read-out against control, counted positive when it falls – at 10 µM in assay [1] worked out at 98%; in assay [2], 100%.
On the same counts, the results for `COc1cc(C)c(S(=O)(=O)N2CCCCC2CCC(=O)N2CCn3c(CCc4cccnc4)ccc3C2)c(C)c1` (stereo not drawn) [(102), 3-(1-(4-Methoxy-2,6-dimethylphenylsulfonyl)piperidin-2-yl)-1-(6-(2-(pyridin-3-yl)ethyl)-3,4-dihydropyrrolo[1,2-a]pyrazin-2(1H)-yl)propan-1-one] are 101% and 86%.
In the same order, the values of `COc1cc(C)c(S(=O)(=O)N2CCCCC2CCCC(=O)N2CCn3c(CCc4cccnc4)ccc3C2)c(C)c1` (stereo not drawn) [(103), 4-(1-(4-Methoxy-2,6-dimethylphenylsulfonyl)piperidin-2-yl)-1-(6-(2-(pyridin-3-yl)ethyl)-3,4-dihydropyrrolo[1,2-a]pyrazin-2(1H)-yl)butan-1-one] are 100% and 95%.
In the same order, the values of `O=C(CC1CCCCN1S(=O)(=O)c1cccc(C(F)(F)F)c1)N1CCn2cc(-c3ccncc3)nc2C1` (stereo not drawn) [(104), 1-(2-(Pyridin-4-yl)-5,6-dihydroimidazo[1,2-a]pyrazin-7(8H)-yl)-2-(1-(3-(trifluoromethyl)phenylsulfonyl)piperidin-2-yl)ethanone] are 49% and 43%.
Consider `COc1cc(C)c(S(=O)(=O)N2CCCCC2CCCC(=O)N2CCn3c(Cc4cccnc4)ccc3C2)c(C)c1` (stereo not drawn) [(105), 4-(1-(4-Methoxy-2,6-dimethylphenylsulfonyl)piperidin-2-yl)-1-(6-(pyridin-3-ylmethyl)-3,4-dihydropyrrolo[1,2-a]pyrazin-2(1H)-yl)butan-1-one], for which the inhibition at 10 µM in assay [1] is 103%; in assay [2] it was 64%.
In the same order, the values of `COc1cc(C)c(S(=O)(=O)N2CCCCC2COCC(=O)N2CCn3c(CCc4ccncc4)ccc3C2)c(C)c1` (stereo not drawn) [(106), 2-((1-(4-Methoxy-2,6-dimethylphenylsulfonyl)piperidin-2-yl)methoxy)-1-(6-(2-(pyridin-4-yl)ethyl)-3,4-dihydropyrrolo[1,2-a]pyrazin-2(1H)-yl)ethanone] are 99% and 99%.
On the same counts, the results for `O=C(CC1CCCCN1S(=O)(=O)c1cccc(C(F)(F)F)c1)N1CCn2c(CCc3ccncc3)ccc2C1` (stereo not drawn) [(107), 1-(6-(2-(Pyridin-4-yl)ethyl)-3,4-dihydropyrrolo[1,2-a]pyrazin-2(1H)-yl)-2-(1-(3-(trifluoromethyl)phenylsulfonyl)piperidin-2-yl)ethanone] are 75% and 26%.
`COc1cc(C)c(S(=O)(=O)N2CCCCC2CCC(=O)N2CCn3c(CCc4ccncc4)ccc3C2)c(C)c1` (stereo not drawn) [(108), 3-(1-(4-Methoxy-2,6-dimethylphenylsulfonyl)piperidin-2-yl)-1-(6-(2-(pyridin-4-yl)ethyl)-3,4-dihydropyrrolo[1,2-a]pyrazin-2(1H)-yl)propan-1-one]: the values for the inhibition at 10 µM in assay [1] and in assay [2] were 99% and 92%, respectively.
On the same counts, the results for `COc1cc(C)c(S(=O)(=O)N2CCCCC2CCCC(=O)N2CCn3c(CCc4ccncc4)ccc3C2)c(C)c1` (stereo not drawn) [(109), 4-(1-(4-Methoxy-2,6-dimethylphenylsulfonyl)piperidin-2-yl)-1-(6-(2-(pyridin-4-yl)ethyl)-3,4-dihydropyrrolo[1,2-a]pyrazin-2(1H)-yl)butan-1-one] are 99% and 95%.
On the same counts, the results for `COc1cc(C)c(S(=O)(=O)N2CCCCC2CCCC(=O)N2CCn3c(ccc3-c3ccncc3)C2)c(C)c1` (stereo not drawn) [(110), 4-(1-(4-Methoxy-2,6-dimethylphenylsulfonyl)piperidin-2-yl)-1-(6-(pyridin-4-yl)-3,4-dihydropyrrolo[1,2-a]pyrazin-2(1H)-yl)butan-1-one] are 101% and 84%.
On the same counts, the results for `COc1cc(C)c(S(=O)(=O)N2CCCCC2COCC(=O)N2CCn3c(Cc4cccnc4)ccc3C2)c(C)c1` (stereo not drawn) [(111), 2-((1-(4-Methoxy-2,6-dimethylphenylsulfonyl)piperidin-2-yl)methoxy)-1-(6-(pyridin-3-ylmethyl)-3,4-dihydropyrrolo[1,2-a]pyrazin-2(1H)-yl)ethanone] are 98% and 100%.
Regarding `COc1cc(C)c(S(=O)(=O)N2CCCCC2COCC(=O)N2CCn3cc(-c4ccncc4)nc3C2)c(C)c1` (stereo not drawn) [(112), 2-((1-(4-Methoxy-2,6-dimethylphenylsulfonyl)piperidin-2-yl)methoxy)-1-(2-(pyridin-4-yl)-5,6-dihydroimidazo[1,2-a]pyrazin-7(8H)-yl)ethanone], the figures for the inhibition at 10 µM in assay [1] and in assay [2] were 101% and 100%, respectively.
On the same counts, the results for `COc1cc(C)c(S(=O)(=O)N2CCCCC2CCC(=O)N2CCn3c(Cc4cccnc4)ccc3C2)c(C)c1` (stereo not drawn) [(113), 3-(1-(4-Methoxy-2,6-dimethylphenylsulfonyl)piperidin-2-yl)-1-(6-(pyridin-3-ylmethyl)-3,4-dihydropyrrolo[1,2-a]pyrazin-2(1H)-yl)propan-1-one] are 100% and 97%.
With `COc1cc(C)c(S(=O)(=O)N2CCCCC2CCC(=O)N2CCn3cc(-c4ccncc4)nc3C2)c(C)c1` (stereo not drawn) [(114), 3-(1-(4-Methoxy-2,6-dimethylphenylsulfonyl)piperidin-2-yl)-1-(2-(pyridin-4-yl)-5,6-dihydroimidazo[1,2-a]pyrazin-7(8H)-yl)propan-1-one], the inhibition at 10 µM came to 98% in assay [1] and 79% in assay [2].
In the same order, the values of `COc1cc(C)c(S(=O)(=O)N2CCCCC2COCC(=O)N2CCn3cc(CCc4ccncc4)nc3C2)c(C)c1` (stereo not drawn) [(115), 2-((1-(4-Methoxy-2,6-dimethylphenylsulfonyl)piperidin-2-yl)methoxy)-1-(2-(2-(pyridin-4-yl)ethyl)-5,6-dihydroimidazo[1,2-a]pyrazin-7(8H)-yl)ethanone] are 98% and 100%.
In the same order, the values of `O=C(CC1CCCCN1S(=O)(=O)c1cccc(C(F)(F)F)c1)N1CCn2cc(CCc3ccncc3)nc2C1` (stereo not drawn) [(116), 1-(2-(2-(pyridin-4-yl)ethyl)-5,6-dihydroimidazo[1,2-a]pyrazin-7(8H)-yl)-2-(1-(3-(trifluoromethyl)phenylsulfonyl)piperidin-2-yl)ethanone] are 102% and 78%.
With `COc1cc(C)c(S(=O)(=O)N2CCCCC2CCC(=O)N2CCn3cc(CCc4ccncc4)nc3C2)c(C)c1` (stereo not drawn) [(117), 3-(1-(4-Methoxy-2,6-dimethylphenylsulfonyl)piperidin-2-yl)-1-(2-(2-(pyridin-4-yl)ethyl)-5,6-dihydroimidazo[1,2-a]pyrazin-7(8H)-yl)propan-1-one], the inhibition at 10 µM in assay [1] came to 98%; in assay [2], 82%.
On the same counts, the results for `COc1cc(C)c(S(=O)(=O)N2CCCCC2CCCC(=O)N2CCn3cc(CCc4ccncc4)nc3C2)c(C)c1` (stereo not drawn) [(118), 4-(1-(4-Methoxy-2,6-dimethylphenylsulfonyl)piperidin-2-yl)-1-(2-(2-(pyridin-4-yl)ethyl)-5,6-dihydroimidazo[1,2-a]pyrazin-7(8H)-yl)butan-1-one] are 102% and 98%.
On the same counts, the results for `COc1cc(C)c(S(=O)(=O)N2CCCCC2CCCC(=O)N2CCn3cc(Cc4ccncc4)nc3C2)c(C)c1` (stereo not drawn) [(119), 4-(1-(4-Methoxy-2,6-dimethylphenylsulfonyl)piperidin-2-yl)-1-(2-(pyridin-4-ylmethyl)-5,6-dihydroimidazo[1,2-a]pyrazin-7(8H)-yl)butan-1-one] are 107% and 90%.
